Source: PubChem BioAssay AID1794809
Inconclusive results are not listed.

Molecular target: Sodium- and chloride-dependent glycine transporter 1 (Homo sapiens) (UniProt P48067)
Assay: PubChem AID 1794809
Conditions: HEK-293 SLC6A9 OE, FLIPR membrane potential dye

Chain of Sodium- and chloride-dependent glycine transporter 1 (Homo sapiens) (P48067 whole entry, looked up): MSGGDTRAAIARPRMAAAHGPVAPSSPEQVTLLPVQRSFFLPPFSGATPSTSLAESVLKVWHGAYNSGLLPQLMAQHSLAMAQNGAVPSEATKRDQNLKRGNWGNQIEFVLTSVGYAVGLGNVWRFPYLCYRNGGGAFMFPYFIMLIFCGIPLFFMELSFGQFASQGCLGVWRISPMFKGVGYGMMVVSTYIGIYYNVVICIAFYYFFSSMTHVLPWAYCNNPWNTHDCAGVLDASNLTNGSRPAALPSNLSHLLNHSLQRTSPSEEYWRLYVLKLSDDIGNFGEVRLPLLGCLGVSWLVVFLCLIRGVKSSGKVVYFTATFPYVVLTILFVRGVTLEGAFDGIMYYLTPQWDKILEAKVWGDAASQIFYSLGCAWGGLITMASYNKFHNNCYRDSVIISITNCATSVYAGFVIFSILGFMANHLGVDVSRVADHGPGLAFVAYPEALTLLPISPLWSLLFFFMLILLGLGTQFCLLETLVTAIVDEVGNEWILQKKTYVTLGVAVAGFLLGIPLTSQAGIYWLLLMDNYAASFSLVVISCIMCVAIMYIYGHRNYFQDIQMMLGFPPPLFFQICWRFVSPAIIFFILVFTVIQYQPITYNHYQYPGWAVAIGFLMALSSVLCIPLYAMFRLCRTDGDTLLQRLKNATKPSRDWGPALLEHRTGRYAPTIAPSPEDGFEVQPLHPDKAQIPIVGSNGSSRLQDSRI

NCC(=O)O
EC50: 106 µM
